Experimental findings from ChEMBL document CHEMBL1201862, “PubChem BioAssay data set” (2004) are described below.

Among the test systems are HT-29; EKVX; UACC-62; SNB-75; OVCAR-4; SK-MEL-5; HOP-62; SK-OV-3; OVCAR-8; RPMI-8226; SN12C; NCI-H23; IGROV-1; UO-31; SK-MEL-28; A498; NCI-H522; HCT-15.
What all share (assay): inhibition of tumour cell growth, NCI panel, 48 h

Each structure is given as a SMILES string.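 Method: 48-hour compound exposure of cells in 96-well plates, five concentrations, linear interpolation of endpoints. At the GI50, growth is halved.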 Activity calls are given as the source filed them. Cut-off read from the data, not from the text of the source: active = GI50 up to about 1.1 µM and inactive = higher. Where only a bound is given, the exact number is not on record here.

With `CC(C)(C)N1CC2(CCCCC2)C1=O`, the GI50 with HT-29, in the assay with EKVX, in the assay on UACC-62, in the assay on SNB-75, in the assay with OVCAR-4 and in the assay on SK-MEL-5 was > 100 µM (inactive) each time. For the same molecule, the GI50 with HOP-62, with SK-OV-3, in the assay with OVCAR-8, in the assay on RPMI-8226, in the assay on SN12C and with NCI-H23 was > 100 µM (inactive) each time. Also, the GI50 in the assay with IGROV-1 was > 100 µM (inactive); with UO-31, > 100 µM (inactive); in the assay with SK-MEL-28, > 100 µM (inactive); with A498 it was > 100 µM (inactive); with NCI-H522 it was > 100 µM (inactive); with HCT-15, more than 100 µM.
With `CC(=O)O[C@H]1CC[C@@]2(C)C(CC[C@]3(C)C2CC[C@]2(C)Oc4c(C)cc(O)cc4C[C@@H]23)C1(C)C` (stereo partly specified), the GI50 in the assay with HT-29 was 11.2 µM (inactive); with EKVX it was 19.5 µM (inactive); with UACC-62, 8.59 µM (inactive); with SNB-75, 2.96 µM (inactive); in the assay with OVCAR-4 it was 7.64 µM (inactive); in the assay on SK-MEL-5 it was 5.87 µM (inactive). Besides, the GI50 is 10.8 µM (inactive) in the assay with HOP-62; 7.08 µM (inactive) in the assay with SK-OV-3; 8.93 µM (inactive) in the assay with OVCAR-8; 2.5 µM (inactive) in the assay on RPMI-8226; > 10 µM (inactive) in the assay with SN12C; 6.56 µM (inactive) with NCI-H23. Besides, the GI50 with IGROV-1 was 13.5 µM (inactive); with UO-31, 8.75 µM (inactive); in the assay with SK-MEL-28 it was 8.59 µM (inactive); in the assay with A498, 12.7 µM (inactive); with NCI-H522 it was 5.46 µM (inactive); in the assay with HCT-15, 3.66 µM.
Take `CN1CCN2c3ccccc3CC(C#N)(C#N)C2C1` (stereo unspecified): the GI50 in the assay on HT-29, with EKVX, with UACC-62, with SNB-75, in the assay with OVCAR-4 and with SK-MEL-5 was > 100 µM (inactive) in each case. The GI50 in the assay with SK-OV-3, with OVCAR-8, in the assay with RPMI-8226, with SN12C, in the assay with NCI-H23 and in the assay on IGROV-1 was > 100 µM (inactive) in each case. In addition, the GI50 in the assay on UO-31 was > 100 µM (inactive); in the assay on SK-MEL-28, > 100 µM (inactive); in the assay with A498 it was > 100 µM (inactive); with NCI-H522 it was > 100 µM (inactive); in the assay with HCT-15 it was more than 100 µM.
For `O=C1Nc2ccccc2C12CCCC2`, the GI50 with HT-29 was > 100 µM (inactive); in the assay with EKVX, 72.3 µM (inactive); with UACC-62 it was > 100 µM (inactive); with SNB-75 it was 54.6 µM (inactive); in the assay with OVCAR-4 it was > 100 µM (inactive); in the assay with SK-MEL-5 it was > 100 µM (inactive). Further, the GI50 with HOP-62, in the assay with SK-OV-3, in the assay with OVCAR-8, in the assay on RPMI-8226, in the assay on SN12C and in the assay with NCI-H23 was > 100 µM (inactive) in each case. Also, the GI50 in the assay with IGROV-1 was > 100 µM (inactive); with UO-31, > 100 µM (inactive); in the assay on SK-MEL-28 it was > 100 µM (inactive); in the assay with A498, > 100 µM (inactive); in the assay with NCI-H522, > 100 µM (inactive); with HCT-15, more than 100 µM.
On to `COc1c(C)c2c(c(C)c1Cl)Oc1c(C=O)c(O)c(Cl)c(C)c1C(=O)O2`, for which the GI50 in the assay on HT-29 is 36.9 µM (inactive); in the assay with EKVX, 17.9 µM (inactive); with UACC-62, 21.6 µM (inactive); with SNB-75 it was 23.4 µM (inactive); with SK-MEL-5, 95.7 µM (inactive); in the assay with HOP-62, 24.3 µM (inactive). Moreover, the GI50 was 33.2 µM (inactive) in the assay with SK-OV-3; 36.7 µM (inactive) in the assay on OVCAR-8; 32.6 µM (inactive) in the assay with RPMI-8226; 33.3 µM (inactive) in the assay with SN12C; 21.1 µM (inactive) in the assay on NCI-H23; 31.6 µM (inactive) with IGROV-1. Moreover, the GI50 in the assay on A498 is 24.2 µM (inactive); with NCI-H522 it was 22.7 µM (inactive).
With `Cn1c2c(c3ccccc31)CCN(CCCCN1CCc3c(n(C)c4ccccc34)C1=O)C2`, the GI50 was > 100 µM (inactive) in the assay on HT-29; > 100 µM (inactive) in the assay with EKVX; > 100 µM (inactive) with UACC-62; 88.1 µM (inactive) in the assay on SNB-75; 36.7 µM (inactive) in the assay with OVCAR-4; > 100 µM (inactive) in the assay with SK-MEL-5. In addition, the GI50 was > 100 µM (inactive) in the assay with HOP-62; 92.7 µM (inactive) with SK-OV-3; > 100 µM (inactive) with OVCAR-8; > 100 µM (inactive) in the assay on RPMI-8226; > 100 µM (inactive) in the assay with SN12C; > 100 µM (inactive) with NCI-H23. The GI50 in the assay on IGROV-1 is > 100 µM (inactive); in the assay with UO-31 it was > 100 µM (inactive); with SK-MEL-28, > 100 µM (inactive); in the assay on A498, > 100 µM (inactive); with NCI-H522 it was > 100 µM (inactive); with HCT-15 it was more than 100 µM.
`O=C(O)/C(=C/c1ccccc1[N+](=O)[O-])c1cccs1`: the GI50 with HT-29, in the assay with EKVX, in the assay on UACC-62, with SNB-75, with OVCAR-4 and with SK-MEL-5 was > 100 µM (inactive) each time. For the same molecule, the GI50 with HOP-62, with SK-OV-3, in the assay with OVCAR-8, in the assay with RPMI-8226, in the assay on SN12C and with NCI-H23 was > 100 µM (inactive) throughout. Further, the GI50 in the assay with IGROV-1 is > 100 µM (inactive); with UO-31 it was > 100 µM (inactive); in the assay with SK-MEL-28, > 100 µM (inactive); with A498 it was > 100 µM (inactive); in the assay on NCI-H522, > 100 µM (inactive); in the assay on HCT-15, more than 100 µM.
In the case of `C=C1C(=O)O[C@H](c2ccoc2)C[C@@H]1[C@@]1(C)CCCC2(C)C(=O)OCC21` (stereo partly specified), the GI50 in the assay with HT-29, with EKVX, with UACC-62, in the assay on SNB-75, in the assay on OVCAR-4 and with SK-MEL-5 was > 100 µM (inactive) in each case. The GI50 with HOP-62, with SK-OV-3, in the assay with OVCAR-8, with RPMI-8226, in the assay on SN12C and in the assay with NCI-H23 was > 100 µM (inactive) each time. For the same molecule, the GI50 was > 100 µM (inactive) with IGROV-1; > 100 µM (inactive) with UO-31; > 100 µM (inactive) with SK-MEL-28; > 100 µM (inactive) in the assay on A498; > 100 µM (inactive) in the assay on NCI-H522; more than 100 µM with HCT-15.
`C=C1CC2OC2(C(=O)O[C@H]2CCC3[C@@H]4CCC5=CC(=O)CC[C@]5(C)C4CC[C@@]32C)C1=O` (stereo partly specified): the GI50 in the assay on HT-29 was 8.34 µM (inactive); with EKVX, 25.5 µM (inactive); in the assay on UACC-62 it was 14.6 µM (inactive); with SNB-75, 16.9 µM (inactive); in the assay with OVCAR-4, 6.34 µM (inactive); with SK-MEL-5, 11.8 µM (inactive). Also, the GI50 with HOP-62 was 21.4 µM (inactive); in the assay with SK-OV-3 it was 20 µM (inactive); with OVCAR-8, 7.59 µM (inactive); in the assay with RPMI-8226, 1.47 µM (inactive); with SN12C, 6.52 µM (inactive); in the assay with NCI-H23 it was 9.53 µM (inactive). In addition, the GI50 was 10.9 µM (inactive) with IGROV-1; 8.38 µM (inactive) in the assay on UO-31; 8.87 µM (inactive) in the assay on SK-MEL-28; 13.6 µM (inactive) in the assay with A498; 2.47 µM (inactive) in the assay on NCI-H522; 3.68 µM with HCT-15.
As for `Cc1cn(C2CC(O)C(CO)O2)c(=O)n2nnnc12` (stereo unspecified), the GI50 in the assay on HT-29, in the assay with EKVX, in the assay with UACC-62, with SNB-75, with OVCAR-4 and in the assay with SK-MEL-5 was > 100 µM (inactive) in each case. Further, the GI50 in the assay on HOP-62, in the assay on SK-OV-3, in the assay with OVCAR-8, in the assay with RPMI-8226, with NCI-H23 and in the assay with IGROV-1 was > 100 µM (inactive) throughout. For the same molecule, the GI50 was > 100 µM (inactive) in the assay with UO-31; > 100 µM (inactive) in the assay on SK-MEL-28; > 100 µM (inactive) with A498; > 100 µM (inactive) in the assay with NCI-H522; more than 100 µM in the assay on HCT-15.
On to `O=C(O)[C@@H](NS(=O)(=O)c1ccc([N+](=O)[O-])cc1)c1ccccc1`, for which the GI50 in the assay on HT-29, in the assay with EKVX, in the assay with UACC-62, in the assay on SNB-75, with OVCAR-4 and in the assay on SK-MEL-5 was > 100 µM (inactive) in each case. The GI50 in the assay with SK-OV-3, in the assay on OVCAR-8, with RPMI-8226, with SN12C, in the assay with NCI-H23 and with IGROV-1 was > 100 µM (inactive) each time. Moreover, the GI50 with UO-31 was > 100 µM (inactive); in the assay on SK-MEL-28 it was > 100 µM (inactive); with A498, > 100 µM (inactive); in the assay on NCI-H522 it was 73.6 µM (inactive); in the assay on HCT-15, more than 100 µM.
